Measured values taken from BindingDB's records for doi:10.1021/jm00034a008 (Ciba-Geigy, 1994).

Key:
[1] = biological target: Purine nucleoside phosphorylase (Bos taurus) (UniProt P55859); assay: Inhibition of calf spleen PNP (purine nucleoside phosphorylase) in 50 mM phosphate
[2] = biological target: Purine nucleoside phosphorylase (Bos taurus) (UniProt P55859); assay: Inhibition of calf spleen PNP (purine nucleoside phosphorylase) in 1 mM phosphate

Chain of Purine nucleoside phosphorylase (Bos taurus) (P55859 whole entry, looked up): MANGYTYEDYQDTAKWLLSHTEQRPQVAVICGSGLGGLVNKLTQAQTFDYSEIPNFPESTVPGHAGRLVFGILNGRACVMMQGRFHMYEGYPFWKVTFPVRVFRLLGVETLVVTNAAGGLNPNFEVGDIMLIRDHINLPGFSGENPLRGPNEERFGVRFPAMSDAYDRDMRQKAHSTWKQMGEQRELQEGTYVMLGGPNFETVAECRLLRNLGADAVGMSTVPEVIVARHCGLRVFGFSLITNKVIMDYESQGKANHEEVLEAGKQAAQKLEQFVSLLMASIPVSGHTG

Structure (SMILES)	IC50 [1]	IC50 [2]
CC(C)(CCS)CCn1cnc2c(=S)[nH]c(N)nc21 [2-Amino-9-(5-mercapto-3,3-dimethyl-pentyl)-1,9-dihydro-purine-6-thione]	95 µM	50 µM
CC(C)(CCn1cnc2c(=O)[nH]c(N)nc21)CCS(=O)(=O)O [5-(2-Amino-6-oxo-1,6-dihydro-purin-9-yl)-3,3-dimethyl-pentane-1-sulfonic acid]	9 µM	0.18 µM
CC(C)(CCC#N)CCn1cnc2c(=O)[nH]c(N)nc21 [6-(2-Amino-6-oxo-1,6-dihydro-purin-9-yl)-4,4-dimethyl-hexanenitrile]	> 300 µM	260 µM
CC(C)(CCC(N)=O)CCn1cnc2c(=O)[nH]c(N)nc21 [6-(2-Amino-6-oxo-1,6-dihydro-purin-9-yl)-4,4-dimethyl-hexanoic acid amide]	> 300 µM	200 µM
CC(C)(CCn1cnc2c(=O)[nH]c(N)nc21)CCS(N)(=O)=O [5-(2-Amino-6-oxo-1,6-dihydro-purin-9-yl)-3,3-dimethyl-pentane-1-sulfonic acid amide]	> 300 µM	100 µM
CC(C)(CCn1cnc2c(=O)[nH]c(N)nc21)CCP(=O)(O)O [[5-(2-Amino-6-oxo-1,6-dihydro-purin-9-yl)-3,3-dimethyl-pentyl]-phosphonic acid]	2 µM	0.044 µM
CC(C)(CCC(=O)O)CCn1cnc2c(=O)[nH]c(N)nc21 [6-(2-Amino-6-oxo-1,6-dihydro-purin-9-yl)-4,4-dimethyl-hexanoic acid]	290 µM	8 µM
